From patent US11975055B2 (priority 2018, dated 2024) come the findings set out here.

The test system of this assay is rat model of MRMT-1 induced bone cancer pain. The conditions noted are these: in vivo.

For `CN1CC[C@]23c4c5ccc(O)c4O[C@H]2[C@@H](O)C=C[C@H]3[C@H]1C5` [Morphine], the “paw withdrawal threshold (allodynia induced by bone cancer)” value is given as “reversal of deficit in paw withdrawal threshold”.
